Experimental data published in patent publication US20240125768A1, “METHODS FOR MODULATING A SRC-1 CONDENSATE” (ETERN BIOPHARMA (SHANGHAI) CO., LTD., priority 2021, published 2024).

What was measured:
[1] = tested on: lung cancer cell lines; assay: Cell proliferation of lung cancer cell lines; format: cell-based
Protocol: FIG. 7V illustrates cell proliferation (lung cancer cells and normal cells) affected by the treatment with elvitegravir. Error bars show mean±s.e.m. (n=3).
(§1) After 6 days [or other time period as indicated] culture, cell viability was measured using CellTiter-Glo® Luminescent Cell Viability Assay (Promega, G7572) and DMSO group was used as normalization to calculate half maximal inhibitory concentration (IC50) using Graphpad Prism software.

[2] = tested on: A549 cells; assay: Anti-proliferative effects in SRC-1 knockdown A549 cells; format: cell-based; details: SRC-1 knockdown vs control
Protocol: FIG. 7W illustrates the anti-proliferative effects of EVG in SRC1 knockdown and control cells. Data represent mean±s.e.m. (n=3).
as §1

[3] = tested on: YAP target genes; assay: RNA-seq global gene expression profiles in SF268 cells; format: cell-based, human; details: 20 μM, 24 h
Protocol: FIG. 7E illustrates SF268 cells treated with EVG were subjected to RNA-seq analysis. GSEA enrichment plots of genes involved in Hippo/YAP signaling.
Total RNA of three biological replicates was extracted from SF268 cells 24 h after treated with 20 μM EVG/DMSO using TRIzol™ Reagent (15596018, Invitrogen). RNAseq libraries were prepared using the Illumina TruSeq RNA Sample Prep kit v2 and sequenced using the Illumina HiSeq Xten platform (150-bp paired-end reads). We mapped the RNA-seq sequencing reads to the human reference transcriptome (GRCh37.71) using HISAT259 version 2.0.1. Differentially expressed genes in elvitegravir-treatment group were identified with the R package DESeq.

[4] = tested on: SRC-1; assay: Biotin-EVG competition pulldown and thermal shift assays; format: binding; details: Flag-SRC-1, biotin-EVG, increasing concentrations of EVG
Protocol: FIG. 7T illustrates the lysates from SF268 cells overexpressing Flag-SRC-1 were incubated with 20 μM biotin or biotin-EVG for streptavidin-beads pull-down assays.
FIG. 7U illustrates purified Flag-SRC1 protein was incubated with EVG-Biotin in the presence of increasing concentrations of EVG and further subjected to streptavidin-beads pull-down assays.
1 μg of purified recombinant protein Flag-SRC-1 was incubated with […] biotin-EVG/DMSO in the presence of increasing concentrations of Elvitegravir (20, 40, 100, 200 uM) for 30 min (RT) and was further incubated with streptavidin-agarose (20359, Thermo Fisher Scientific) for 20 min (RT). Washing beads with PBS (3×1.5 min). The precipitates were analyzed by western blot with anti-flag antibody.
Methods: Cells (SF268 cells and HEK293FT cells were transfected with expression vector of Flag-SRC-1) were harvested and lysed in lysis buffer (20 mM TrisHCl 7.5, 150 mM NaCl, 0.5% NP40, 5% glycerin, 1% proteinase Cocktail), and then incubated with 20 µM compound with biotin tag or DMSO for 40 min at room temperature. Then incubated with 100 μL streptavidin-agarose (20359, Thermo Fisher Scientific) for 30 min at RT. The beads were washed 4 times with lysis buffer ([…] 1.5 min). And the precipitates were analyzed by western blot with anti-flag antibody. […]

[5] = tested on: H3K27ac; assay: ChIP-qPCR of histone modifications at YAP target regions; format: cell-based, human; details: SF268 cells
Protocol: FIG. 7L illustrates analysis of indicated histone modifications at YAP targets regions #1 from SF268 cells treated with DMSO or EVG by ChIP-qPCR. Error bars show mean±s.e.m. (n=3), *p<0.05, ***p<0.001
Briefly, cells were crosslinked with 1% formaldehyde (Sigma) in culture medium for 10 min at room temperature, and chromatin from lysed nuclei was sheared to 200-1000 bp fragments using a Bioruptor® Pico (Diagenode SA). ˜50 μg of sheared chromatin and ˜2 μg of antibody were mixed. Antibody/antigen complexes were recovered with ProteinG-Dynabeads (Invitrogen) for 1.5 h at 4° C. Quantitative real-time PCR was carried out with QuantStudio™ 6 Flex Real-Time PCR Systems (Thermofisher Scientific). The amount of immunoprecipitated DNA in each sample was determined as the fraction of the input, and normalized to the IgG control. PCR Primers are listed in Supplementary Table S2.
Chromatin immunoprecipitation antibodies are listed in Supplementary […] Supplementary Methods. […] Quantitative real-time PCR was carried out with QuantStudio™ 6 Flex Real-Time PCR Systems (Thermofisher Scientific). The amount of immunoprecipitated DNA in each sample was determined as the fraction of the input, and normalized to the IgG control.

[6] = tested on: RNA polymerase II phosphorylated at Ser 5 (CTD); assay: Immunofluorescence of RNA pol II-S5P at TEAD puncta in H1299 cells; format: cell-based; details: H1299 cells co-expressing YAP5SA, TEAD4-mTagBFP, mNeoGreen-SRC1; 20 μM
Protocol: FIG. 7 M illustrates immunofluorescence staining with anti-H3K27ac (red,top) and anti-RNA pol II-S5P (red, bottom) in H1299 cells co-expressing YAP5SA, TEAD4-mTagBFP(blue) and mNeoGreen-SRC1(green) treated with 20 μM EVG. EVG impaired the SRC-1 LLPS. Transcription active markerH3K27ac and active RNA polymerase II phosphorylated at Ser 5 of CTD were not enriched in SRC-1 condensates. Scale bar, 5 μm.
Cells were fixed with 4% PFA for 15 minutes at room temperature. Cells were subsequently washed with PBS (3×3 min) and blocked in PBS/BSA (3%)/Triton X-100 (0.3%) at room temperature for 60 minutes. Cells were rinsed in PBS and incubated with anti-H3K27ac (ab4729, Abcam, 1:100), anti-RNA Pol II-S5P antibody (#04-1572, Millipore, 1:200) in PBS/BSA (1%) overnight at 4° C. Cells were washed with PBST (1×PBS+Tween20 0.2%, 3×5 min) and incubated with the secondary antibody for 1 hours at room temperature. After washing with PBST(3×5 min), cells were stained with DAPI.

- binding to SRC-1, competition pulldown and thermal shift [4]: both direct and specific
Structure (SMILES): COc1cc2c(cc1Cc1cccc(Cl)c1F)c(=O)c(C(=O)O)cn2[C@H](CO)C(C)C [EVG, 6-[(3-chloro-2-fluorophenyl)methyl]-1-[(2S)-1-hydroxy-3-methylbutan-2-yl]-7-methoxy-4-oxoquinoline-3-carboxylic acid]
- proliferation of lung cancer cell lines [1]: effectively inhibited
- anti-proliferative effects after inducible knockdown of SRC-1 [2]: partially resistant
- YAP target genes, global gene expression profiles [3]: downregulates
- H3K27ac mark levels at YAP target genes [5]: reducing
- RNA polymerase II phosphorylated at Ser 5 (CTD) at TEAD puncta [6]: no effect
